Target: Complement factor D (Homo sapiens, UniProt P00746)
Experiment: Factor D Assay
Protocol: Human factor D (purified from human serum, Complement Technology, Inc.) at 80 nM final concentration is incubated with test compound at various concentrations for 5 minutes at room temperature in 50 mM Tris, 1M NaCl, pH 7.5. A synthetic substrate Z-L-Lys-SBz1 and DTNB (Ellman's reagent) are added to final concentrations of 100 μM each. The increase in color is recorded at OD405 nm in a microplate in kinetic mode over 30 minutes with 30 second time points in a […]. IC50 values are calculated by non-linear regression from the percentage of inhibition of complement factor D activity as a function of test compound concentration.

Chain of Complement factor D (P00746 whole entry): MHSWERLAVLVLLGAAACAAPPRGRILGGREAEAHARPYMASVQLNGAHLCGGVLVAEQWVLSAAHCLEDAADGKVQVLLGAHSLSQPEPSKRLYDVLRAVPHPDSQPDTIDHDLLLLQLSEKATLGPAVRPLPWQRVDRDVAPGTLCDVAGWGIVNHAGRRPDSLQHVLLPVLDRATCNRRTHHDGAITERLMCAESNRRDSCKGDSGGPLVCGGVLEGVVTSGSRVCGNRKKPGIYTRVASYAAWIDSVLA

## CC(=O)c1cn(CC(=O)N2C[C@H](F)C[C@H]2C(=O)Nc2cccc(-c3ccccc3Cl)c2F)c2ccc(N(COC(=O)C(C)(C)C)c3cncnc3)cc12 [US9598446, Compound 15]
  IC50: in the range around 5.5 µM

Source: BindingDB's records for patent US9598446 (Achillion Pharmaceuticals, 2017)
